Data from ChEMBL document CHEMBL1158009, “Paclitaxel analogues from Taxus x media cv. Hicksii” (1999).

Legend:
[1] = tested on: MCF7; test: Cytotoxicity against human MCF7 cells assessed as ratio of ED50 for drug to ED50 for paclitaxel; assay type: functional
[2] = tested on: Tubulin; test: Inhibition of microtubule assembly = assessed as ratio of ED50 for drug to ED50 for paclitaxel
[3] = tested on: MCF7R; test: Cytotoxicity against human MCF7R cells assessed as ratio of ED50 for drug to ED50 for paclitaxel; assay type: functional

Structure (SMILES) | Ratio ED50 [1] | Ratio ED50 [2] | Ratio ED50 [3]
C/C=C(\C)C(=O)O[C@H]1[C@@H]2[C@]3(OC(C)=O)CO[C@@H]3C[C@H](O)[C@@]2(C)C(=O)[C@H](OC(C)=O)C2=C(C)[C@@H](OC(=O)[C@H](O)[C@H](NC(=O)c3ccccc3)c3ccccc3)C[C@]1(O)C2(C)C [ISOCEPHALOMANNINE] | 12 | 1.1 | 
CCC(C)C(=O)N[C@H](c1ccccc1)[C@@H](O)C(=O)O[C@H]1C[C@@]2(O)[C@@H](OC(=O)c3ccccc3)[C@@H]3[C@]4(OC(C)=O)CO[C@@H]4C[C@H](O)[C@@]3(C)C(=O)[C@H](OC(C)=O)C(=C1C)C2(C)C (some centres not stated) | >10 | 6.7 | 
CC(=O)O[C@H]1C(=O)[C@@]2(C)[C@H]([C@H](OC(=O)c3ccccc3)[C@]3(O)C[C@H](OC(=O)[C@H](O)[C@H](NC(=O)/C=C/c4ccccc4)c4ccccc4)C(C)=C1C3(C)C)[C@]1(OC(C)=O)CO[C@@H]1C[C@@H]2O | 1.3 | 1.2 | 1.2
